Patent US8912121B2, “Herbicidal compositions comprising 4-amino-3-chloro-5-fluoro-6-(4-chloro-2-fluoro-3-methoxyphenyl)pyridine-2-carboxylic acid or a derivative thereof and certain PS II inhibitors” (Dow Agrosciences LLC, priority 2012, dated 2014)

System: CYPRO (Cyperus rotundus, purple nutsedge)
Assay: In-water applied mixtures, transplanted paddy rice, greenhouse
Assay type: in vivo, Cyperus rotundus L.
Conditions: 19 DAA
Protocol: Weed seeds or nutlets of the desired test plant species were planted in puddled soil (mud) prepared by mixing a shredded, non-sterilized mineral soil (50.5 percent silt, 25.5 percent clay, and 24 percent sand, with a pH of about 7.6 and an organic matter content of about 2.9 percent) and water at a 1:1 volumetric ratio. The prepared mud was dispensed in 365 mL aliquots into 16-ounce (oz.) non-perforated plastic pots with a surface area of 86.59 square centimeters (cm^2) leaving a headspace of 3 centimeters (cm) in each pot Mud was allowed to dry overnight prior to planting or transplanting. Rice seeds were planted in Sun Gro MetroMix® 306 planting mixture, which typically has a pH of 6.0 to 6.8 and an organic matter content of about 30 percent, in plastic plug trays. Seedlings at the second or third leaf stage of growth were transplanted into 840 mL of mud contained in 32-oz. non-perforated plastic pots with a surface area of 86.59 cm^2 4 days prior to herbicide application. The paddy was created by filling the headspace of the pots with 2.5 to 3 cm of water. When required to ensure good germination and healthy plants, a fungicide treatment and/or other chemical or physical treatment was applied. The plants were grown for 4-22 days in a greenhouse with an approximate 14 h photoperiod which was maintained at about 29° C during the day and 26° C. during the night. Nutrients were added as Osmocote® (19:6:12, N:P:K+ minor nutrients) at 2 g per 16-oz. pot and 4 g per 32-oz. pot. Water was added on a regular basis to maintain the paddy flood, and supplemental lighting was provided with overhead metal halide 1000-Watt lamps as necessary. The plants were employed for testing when they reached the first through fourth true leaf stage.
Treatments consisted of the acid or esters of 4-amino-3-chloro-5-fluoro-6-(4-chloro-2-fluoro-3-methoxy-phenyl)pyridine-2-carboxylic acid (compound A) each formulated as an SC (suspension concentrate) and various herbicidal components alone and in combination. Forms of compound A were applied on an acid equivalent basis.
Other herbicidal components were applied on an active ingredient basis and included photosystem II (PSII)-inhibits propanil formulated as […] bentazon-sodium formulated as Basagran®, and simetryne (technical grade material).
Treatment requirements for each compound or herbicidal component were calculated based upon the rates being tested, the concentration of active ingredient or acid equivalent in the formulation, an application volume of 2 mL per component per pot, and an application area of 86.59 cm^2 per pot.
For formulated compounds, a measured amount was placed in an individual 100 or 200 mL glass vial and was dissolved in a volume of 1.25% (v/v) Agri-Dex® crop oil concentrate to obtain application solutions.
For technical grade compounds, a weighed amount was placed in an individual 100 to 200 mL glass vial and was dissolved in a volume of acetone to obtain concentrated stock solutions. […] The concentrated stock solutions obtained were diluted with an equivalent volume of an aqueous mixture containing 2.5% (v/v) crop oil concentrate so that the final application solutions contained 1.25% (v/v) crop oil concentrate.
Applications were made by injecting with a pipetter appropriate amounts of the application solutions, individually and sequentially, into the aqueous layer of the paddy. Control plants were treated in the same manner with the solvent blank. Applications were made so that all treated plant material received the same concentrations of acetone and crop oil concentrate.
The treated plants and control plants were placed in a greenhouse as described above and water was added as needed to maintain a paddy flood. After approximately 3 weeks the condition of the test plants as compared with that of the untreated plants was determined visually and scored on a scale of 0 to 100 percent where 0 corresponds to no injury or growth inhibition and 100 corresponds to complete kill. […]

## COc1c(Cl)ccc(-c2nc(C(=O)OCc3ccccc3)c(Cl)c(N)c2F)c1F [Compound A Benzyl Ester, benzyl ester of 4-amino-3-chloro-5-fluoro-6-(4-chloro-2-fluoro-3-methoxy-phenyl)pyridine-2-carboxylic acid]
8 g ae/ha
  Visual Weed Control (%) Obs: 50%
16 g ae/ha
  Visual Weed Control (%) Obs: 85%
32 g ae/ha
  Visual Weed Control (%) Obs: 90%
